Experimental data published in US10894817B2, “Fatty acid modified urocortin-2 analogs for the treatment of diabetes and chronic kidney disease” (priority 2016, dated 2021).
Where two headings read alike, the source gives them in different places. Starred links: 1 amine or outer side, 2 acyl side, 3 side chain; linkers in the order of their positions; H or OH if unused. Non-standard residues stand in square brackets, D forms with d. Residues, ends and D or L forms follow the SMILES beside them. Groups on a side chain read outwards from the residue. *: point of attachment. C20 diacid = O=C(O)CCCCCCCCCCCCCCCCCCC(=O)*; γGlu = O=C(O)[C@H](CCC(=O)[*:2])N[*:1]; NMeI = CC[C@H](C)[C@H](NC)C(=O)O; AEEA = NCCOCCOCC(=O)O

What was measured:
[1] = cynomolgus monkey, in vivo, sc, 96.4 nmol/kg
Protocol: (§3) Plasma concentrations of compounds were determined by LC/MS methods. Each method measured the intact compound; peptide plus linked time extension. For each assay, the compound and an analog, used as an internal standard (IS), were extracted from 100% mouse, rat or monkey plasma (25 μl) using acetonitrile. Two distinct layers were formed upon centrifugation with the compound and the IS located in the supernatant layer. An aliquot of the supernatant (80 μl) was transferred to a Thermo Protein Precipitation Plate with water (150 μl) and formic acid (25 μl) followed by mixing. A final 31% acetonitrile in 10% formic acid sample (10 μl) was loaded onto a Supelco Analytical Discovery BIO Wide Pore C5-3 column (5 cm×1 mm, 3 μm). The column effluent was directed into a Thermo Q-Exactive mass spectrometer for detection and quantitation.
Male Cynomolgus monkeys were administered a single subcutaneous dose or intravenous dose (96.4 nmol/kg) of a compound described herein in 20 mM Tris-HCl Buffer (pH 7) at a volume of 1 mL/kg. Blood was collected from each animal at 2, 6, 24, 48, 72, 96, 168, 240, 336, 408, and 504 hours postdose for pharmacokinetic characterization.
Male Cynomolgus monkeys were also administered a single subcutaneous dose (50 nmol/kg) of a compound described herein in 20 mM Tris-HCl Buffer (pH 8) at a volume of 0.26 mL/kg. Blood was collected from each animal at 3, 6, 12, 24, 48, 72, 96, 120, 168, 192, 240, 336, 408, and 504 hours postdose for pharmacokinetic characterization.

remnant kidney mice [2] = experiment: Mouse remnant kidney model of hypertensive nephropathy (Example 2, 9 weeks); assay type: in vivo; details: all groups
Protocol: (§1) A mouse remnant kidney model (“remnant”) involving surgical reduction of ¾ of the entire renal mass is used as a preclinical model of hypertensive renal disease (Kidney Int. 64(1):350-5, (2003)).
Surgical reduction of renal mass (N=40 mice) or sham surgery is performed by Taconic, Inc. in male 129S6 mice at 8-9 weeks of age (obtained by Taconic, Inc.). Randomization into 5 equivalent groups of 8 remnant kidney mice is done at 15 weeks post-surgery by urine albumin to creatinine ratio (ACR) and body weight.
Study duration is 9 weeks. After 2 weeks of dosing, a necropsy is done on all groups except the 144 nmol/kg group of Example 2 which continues to be monitored for ACR for another 7 weeks to determine the durability of the effects of the compound of Example 2 on urine ACR. […]
Body weight is determined at baseline and at termination with a Metler Toledo Balance. […] Serum is analyzed for BUN and creatinine on a Roche Hitachi Modular Analytics P analyzer with reagents from Roche. […]
(§2) Urine albumin and creatinine are determined on a Roche Hitachi Modular Analytics P analyzer. Urine creatinine is determined with the Creatinine Plus reagent by Roche. […]
All data are analyzed with JMP v.8.0 software (SAS Institute). […] All other data were evaluated by ANOVA with log transformed data if the data were skewed and a Students unpaired t test. […]

[3] = rat, in vivo, sc, 150 nmol/kg
Protocol: as §3
Male Sprague Dawley rats were administered a single subcutaneous dose (50 or 150 nmol/kg) of a compound described herein in 20 mM Tris-HCl Tris Buffer (pH 8) at a volume of 0.26 or 0.77 mL/kg.

[4] = mouse, in vivo, sc, 386 nmol/kg
Protocol: as §3
Male CD-1 mice were administered a single subcutaneous dose (350, 386 or 388 nmol/kg) of a compound described herein in 20 mM Tris-HCl Tris Buffer (pH 7 or 8) at a volume of 0.05 or 0.06 mL/animal. Blood was collected at 6, 12, 24, 48, 72, 96, 120 and 168 hours postdose for pharmacokinetic characterization (101).

remnant kidney mice [5] = experiment: Mouse remnant kidney model of hypertensive nephropathy (Example 4, 8 weeks); assay type: in vivo; details: 2.6 nmol/kg dose group
Protocol: as §1
Surgical reduction of renal mass (N=32 mice) (obtained by Taconic, Inc.) is performed by Taconic, Inc. in male 129S6 mice at 9-10 weeks of age. Randomization into 4 equivalent groups of 8 remnant kidney mice is done at 17 weeks post-surgery by urine albumin to creatinine ratio (ACR) and body weight. […]
Body weight is determined at baseline and at termination with a Metler Toledo Balance.
The heart and kidney are removed at necropsy and weighed on a Metler Toledo Balance. […] Serum is analyzed for creatinine on a Roche Hitachi Modular Analytics P analyzer with reagents from Roche. […]
as §2
Remnant kidneys are removed at study termination, fixed in formalin and processed for paraffin sectioning according to standard methodology. Sections of kidney are evaluated for renal lesions by a board certified pathologist. […]
Pathology data are statistically evaluated with R software by fitting an ordered logit model to the categorical scores, and then comparing the differences between different treatment groups. […]

SMILES	CL/F ([1]; CL/F)	half-life ([1]; T1/2)	deaths during the study (remnant kidney mice [2])	CL/F ([3]; CL/F)	half-life ([3]; T1/2)	CL/F [4]	half-life [4]	deaths during the study (remnant kidney mice [5])
CC[C@H](C)[C@H](NC(C)=O)C(=O)N[C@H](C(=O)N[C@@H](CC(C)C)C(=O)N[C@@H](CO)C(=O)N[C@@H](CC(C)C)C(=O)N[C@@H](CC(=O)O)C(=O)N[C@H](C(=O)N1CCC[C@H]1C(=O)N[C@H](C(=O)NCC(=O)N[C@@H](CC(C)C)C(=O)N[C@@H](CC(C)C)C(=O)N[C@@H](CCC(N)=O)C(=O)N[C@H](C(=O)N[C@@H](CC(C)C)C(=O)N[C@@H](CC(C)C)C(=O)N[C@@H](CCC(=O)O)C(=O)N[C@@H](CCC(N)=O)C(=O)N[C@@H](CCC(=O)O)C(=O)N[C@@H](CCCCN)C(=O)N[C@@H](CCC(N)=O)C(=O)N[C@@H](CCC(=O)O)C(=O)N[C@@H](CCCCN)C(=O)N[C@@H](CCC(=O)O)C(=O)N[C@@H](CCCCN)C(=O)N[C@@H](CCC(N)=O)C(=O)N[C@@H](CCC(N)=O)C(=O)N[C@@H](C)C(=O)N[C@@H](CCCCNC(=O)COCCOCCNC(=O)COCCOCCNC(=O)CC[C@H](NC(=O)CC[C@H](NC(=O)CCCCCCCCCCCCCCCCCCC(=O)O)C(=O)O)C(=O)O)C(=O)N[C@H](C(=O)N[C@@H](CC(N)=O)C(=O)N[C@@H](C)C(=O)N[C@@H](CCC(N)=O)C(=O)N[C@H](C(=O)N[C@@H](CC(C)C)C(=O)N[C@@H](C)C(=O)N[C@@H](CCC(N)=O)C(=O)N[C@H](C(N)=O)C(C)C)[C@@H](C)CC)[C@@H](C)O)[C@@H](C)CC)[C@@H](C)CC)C(C)C)C(C)C [Example 2] (Ac-IVLSLDVPIGLLQILLEQEKQEKEKQQAK([AEEA-AEEA-γGlu-γGlu-C20 diacid])TNAQILAQV-NH2)	0.41 mL/h/kg	97 h	no deaths	4.7 mL/h/kg	34 h	8.3 mL/h/kg	20 h	–
CC[C@H](C)[C@H](NC)C(=O)N[C@H](C(=O)N[C@@H](CC(C)C)C(=O)N[C@@H](CO)C(=O)N[C@@H](CC(C)C)C(=O)N[C@@H](CC(=O)O)C(=O)N[C@H](C(=O)N1CCC[C@H]1C(=O)N[C@H](C(=O)NCC(=O)N[C@@H](CC(C)C)C(=O)N[C@@H](CC(C)C)C(=O)N[C@@H](CCC(N)=O)C(=O)N[C@H](C(=O)N[C@@H](CC(C)C)C(=O)N[C@@H](CC(C)C)C(=O)N[C@@H](CCC(=O)O)C(=O)N[C@@H](CCC(N)=O)C(=O)N[C@@H](CCC(=O)O)C(=O)N[C@@H](CCCCN)C(=O)N[C@@H](CCC(N)=O)C(=O)N[C@@H](CCC(=O)O)C(=O)N[C@@H](CCCCN)C(=O)N[C@@H](CCC(=O)O)C(=O)N[C@@H](CCCCN)C(=O)N[C@@H](CCC(N)=O)C(=O)N[C@@H](CCC(N)=O)C(=O)N[C@@H](C)C(=O)N[C@@H](CCCCNC(=O)COCCOCCNC(=O)COCCOCCNC(=O)CC[C@H](NC(=O)CC[C@H](NC(=O)CCCCCCCCCCCCCCCCCCC(=O)O)C(=O)O)C(=O)O)C(=O)N[C@H](C(=O)N[C@@H](CC(N)=O)C(=O)N[C@@H](C)C(=O)N[C@@H](CCC(N)=O)C(=O)N[C@H](C(=O)N[C@@H](CC(C)C)C(=O)N[C@@H](C)C(=O)N[C@@H](CCC(N)=O)C(=O)N[C@H](C(N)=O)C(C)C)[C@@H](C)CC)[C@@H](C)O)[C@@H](C)CC)[C@@H](C)CC)C(C)C)C(C)C [Example 4] (H-[NMeI]VLSLDVPIGLLQILLEQEKQEKEKQQAK([AEEA-AEEA-γGlu-γGlu-C20 diacid])TNAQILAQV-NH2)	–	–	–	–	–	–	–	one
